# According to PubChem BioAssay (NCI):
# Values joined by “and” are separate entries in the source; they are usually repeats but may differ in a detail not shown here. Identical values can stand only once.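 Five compound concentrations were applied to cells in 96-well plates for 48 hours; endpoints were derived by simple linear interpolation of the resulting dose-response curve. GI50 is the concentration that inhibits growth by half. TGI is the concentration that stops growth completely.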
# Tests used:
# Test in all cases: inhibition of tumour cell growth, NCI panel, 48 h
# OVCAR-8 ovarian = system: OVCAR-8 ovarian
# NCI/ADR-RES ovarian = system: NCI/ADR-RES ovarian
# NCI-H522 lung = system: NCI-H522 lung
# IGROV1 ovarian = system: IGROV1 ovarian
# CCRF-CEM leukemia = system: CCRF-CEM leukemia
# SF-539 CNS = system: SF-539 CNS
# RXF 393 renal = system: RXF 393 renal
# HOP-92 NSCLC = system: HOP-92 NSCLC
# HCT-15 colon = system: HCT-15 colon
# MALME-3M melanoma = system: MALME-3M melanoma
SMILES,GI50 (OVCAR-8 ovarian),TGI (OVCAR-8 ovarian),GI50 (NCI/ADR-RES ovarian),TGI (NCI/ADR-RES ovarian),GI50 (NCI-H522 lung),TGI (NCI-H522 lung),GI50 (IGROV1 ovarian),TGI (IGROV1 ovarian),GI50 (CCRF-CEM leukemia),TGI (CCRF-CEM leukemia) [µM],GI50 (SF-539 CNS),TGI (SF-539 CNS),GI50 (RXF 393 renal),TGI (RXF 393 renal),GI50 (HOP-92 NSCLC),TGI (HOP-92 NSCLC),GI50 (HCT-15 colon),TGI (HCT-15 colon),GI50 (MALME-3M melanoma),TGI (MALME-3M melanoma)
Cn1cc(C2=C(c3c4n(c5ccccc35)CCC(CN)CC4)C(=O)NC2=O)c2ccccc21 (configuration not stated),4.82 µM,9.8 µM,> 25 µM,> 25 µM,4.08 µM,8.11 µM,3.98 µM,8.75 µM,5.19 µM,15.6,3.91 µM,7.35 µM,3.65 µM,7.1 µM,2.92 µM,7.69 µM,4.82 µM,9.93 µM,3.8 µM,7.88 µM
COc1ccc(Nc2ccnc(NCCCNc3ccnc4cc(Cl)ccc34)n2)cc1,1.5 µM,5.16 µM,2.78 µM,10.4 µM,1.62 µM,3.67 µM,1.48 µM,4.14 µM,0.34 µM,1.8,0.169 µM,0.352 µM,0.897 µM,2.3 µM,0.632 µM,2.65 µM,0.397 µM,1.76 µM,1.36 µM,3.08 µM
O=C(O)c1cccc(CC(Br)C(=O)O)c1 (configuration not stated),,> 100 µM,,> 100 µM,,> 100 µM,,> 100 µM,,> 100,,> 100 µM,,> 100 µM,,> 100 µM,,> 100 µM,,> 100 µM
COc1cc(C(=O)n2nc(N3CCN(C)CC3)c3cc(N)ccc32)cc(OC)c1OC,4.77 µM,> 100 µM,4.2 µM,> 100 µM,2.01 µM,8.87 µM,4.88 µM,> 100 µM,3.78 µM,> 100,2.86 µM,10.1 µM,3.04 µM,> 100 µM,6.4 µM,> 100 µM,3.45 µM,> 100 µM,5.12 µM,50.3 µM
CC(C)=CCC/C(C)=C/CC/C(=C/COP(=O)(OCc1ccc([N+](=O)[O-])o1)N(C)CCCCCl)C(C)(C)C (configuration not stated),10.7 µM,36.1 µM,16.3 µM,38.5 µM,2.66 µM,10 µM,6.29 µM,22.5 µM,0.0571 µM,27.4,4.25 µM,10.6 µM,7.84 µM,26.5 µM,12.8 µM,25.4 µM,1.66 µM,6.79 µM,,
COC(=O)N/N=C(\C)C(CN1CCOCC1)C(c1ccccc1)c1cc2ccccc2oc1=O (configuration not stated),,> 100 µM,,> 100 µM,,> 100 µM,,> 100 µM,,> 100,,> 100 µM,,> 100 µM,,> 100 µM,,> 100 µM,,> 100 µM
Cc1ccc2sc3c(NCCCNCCO)nc4ccccc4c3c(=O)c2c1,1.74 µM,3.61 µM,1.78 µM,3.51 µM,1.66 µM,3.43 µM,1.59 µM,3.14 µM,1.35 µM,2.97,1.68 µM,3.08 µM,1.5 µM,2.88 µM,1.28 µM,3.78 µM,1.48 µM,2.92 µM,1.69 µM,3.18 µM
O=C1C=CC2(C=C1)CCN=c1c(O)c3c(c(O)c12)=NC=N3,14 µM and > 100 µM,37.3 µM and > 100 µM,22.7 µM and > 100 µM,> 100 µM,,16.6 µM and > 100 µM,,31 µM,,> 100,13.8 µM and > 100 µM,26.9 µM and > 100 µM,16.2 µM and > 100 µM,30.1 µM and > 100 µM,14.8 µM and > 100 µM,28.9 µM and > 100 µM,14.5 µM and > 100 µM,29.9 µM and > 100 µM,,4.42 µM
COC(=O)c1c2c(c(C)[n+]([O-])c1C)C(=O)C(NCc1ccc(F)c(F)c1)=CC2=O,1.96 µM,7.97 µM,2.3 µM,6.86 µM,1.57 µM,3.75 µM,,,1.72 µM,4.57,1.92 µM,4.12 µM,2.15 µM,5.96 µM,2.81 µM,6.43 µM,1.6 µM,4.02 µM,0.238 µM,0.874 µM
O=C(O)CCC1CCC(c2cc(F)ccc2F)(S(=O)(=O)c2ccc(Cl)cc2)CC1 (configuration not stated),74.8 µM and > 100 µM,> 100 µM,25.8 µM and > 74.3 µM,99.7 µM and > 100 µM,20.7 µM and > 100 µM,79.7 µM and > 100 µM,18 µM and 80.7 µM,65 µM and > 100 µM,29 µM and > 100 µM,> 100,29.4 µM and > 100 µM,> 100 µM,12.5 µM and 76.6 µM,78.8 µM and > 100 µM,,95.1 µM and > 100 µM,33.7 µM and 47.8 µM,> 100 µM,10.2 µM and > 100 µM,96.4 µM and > 100 µM
CC/C(=C(\CC)c1ccc(OCCN(CC)CC)cc1)c1ccc(OCCN(CC)CC)cc1,5.85 µM,19.3 µM,4.89 µM,17.9 µM,1.83 µM,4.67 µM,3.3 µM,22.1 µM,2.51 µM,25,1.29 µM,3.85 µM,1.63 µM,3.75 µM,0.879 µM,4.72 µM,1.74 µM,11.2 µM,1.81 µM,5.87 µM
Cc1ccc(C(=O)NC2CCCCC2)cc1-c1ccc(C(=O)NCC2CC2)cc1,> 25 µM,> 25 µM,24.6 µM,> 25 µM,13.5 µM,> 25 µM,> 25 µM,> 25 µM,> 25 µM,> 25,> 25 µM,> 25 µM,> 25 µM,> 25 µM,6.02 µM,> 25 µM,> 25 µM,> 25 µM,> 25 µM,> 25 µM
CO[C@H]1CC[C@@]2(C)C(=CC[C@H]3[C@@H]4C[C@H](O)C[C@@]4(C)CC[C@@H]32)C1,5.14 µM,19.2 µM,4.17 µM,39.9 µM,3.96 µM,15.5 µM,6.91 µM,26.5 µM,3.05 µM,19.1,3.01 µM,8.64 µM,2.49 µM,6.57 µM,1.38 µM,18.1 µM,5.04 µM,23.2 µM,5.22 µM,19.4 µM
CC1(C)C2CCC13C(=O)C1OC3(C2)C2C(=O)c3c(O)ccc(O)c3C(=O)C12 (configuration not stated),47.2 µM,> 93.9 µM,17.5 µM,59.1 µM,38.8 µM,> 100 µM,23.8 µM,> 100 µM,4.45 µM,> 46.9,48 µM,> 100 µM,31.1 µM,> 56.9 µM,17.8 µM,46.8 µM,18.5 µM,> 54 µM,18.3 µM,50.6 µM
CC(=O)OCC1OC(S[As](C)C)C(OC(C)=O)C1OC(C)=O (configuration not stated),0.272 µM,1.57 µM,0.259 µM,2.48 µM,0.139 µM,0.528 µM,0.732 µM,4.06 µM,0.19 µM,1.34,0.226 µM,0.907 µM,0.455 µM,2.31 µM,0.328 µM,2.57 µM,0.256 µM,1.08 µM,0.107 µM,0.696 µM
CCCC(=O)NNc1[nH]c(-c2ccc(OC)cc2)cc1C(=O)OCC,17.8 µM,48.3 µM,19.2 µM,47.4 µM,24 µM,50 µM,21.2 µM,39.5 µM,2.82 µM,> 100,19.3 µM,37 µM,22 µM,45.1 µM,18.6 µM,35.5 µM,9.47 µM,21.3 µM,14.5 µM,29.2 µM
Nc1nccc(Nc2ccc(S(N)(=O)=O)cc2)n1,,> 100 µM,,> 100 µM,,> 100 µM,,> 100 µM,,> 100,,> 100 µM,,> 100 µM,,> 100 µM,,> 100 µM,,> 100 µM
COC(=O)Nc1nc2ccc(Oc3ccc(NC(=O)Nc4cccc(Cl)c4)cc3)cc2[nH]1,2.84 µM,> 17.8 µM,5.17 µM,> 25 µM,0.543 µM,4.07 µM,2.86 µM,9.79 µM,0.838 µM,> 15,0.658 µM,6.85 µM,0.445 µM,2.34 µM,0.853 µM,5.47 µM,0.815 µM,> 25 µM,0.564 µM,7.95 µM
O=C1/C(=C/c2ccc(Cl)cc2)CN(C(=O)C(Cl)Cl)C/C1=C\c1ccc(Cl)cc1,0.22 µM,1.44 µM,0.358 µM,> 32.9 µM,0.31 µM,1.4 µM,0.178 µM,0.422 µM,0.0742 µM,> 59.3,0.194 µM,0.467 µM,0.18 µM,0.378 µM,0.249 µM,1.01 µM,0.0577 µM,0.793 µM,0.23 µM,0.759 µM
O=C(O)CC1(C(=O)O)CCCCC1,,> 100 µM,,> 100 µM,,> 100 µM,,> 100 µM,,> 100,,> 100 µM,,> 100 µM,,> 100 µM,,> 100 µM,,> 100 µM
O=C1/C(=C/C(Cl)=C/c2ccccc2)SC(=S)N1CCc1ccc(O)cc1,0.596 µM,16.3 µM,2.16 µM,> 100 µM,1.42 µM,4.78 µM,2.02 µM,4.93 µM,0.441 µM,> 100,1.72 µM,3.52 µM,1.58 µM,3.2 µM,3.18 µM,21.6 µM,2.05 µM,11.2 µM,1.44 µM,3 µM
CCNc1nc(N2CC(=O)Nc3cc(OC)ccc32)c2ccccc2n1,0.000945 µM,> 100 µM,0.000399 µM,0.015 µM,0.00051 µM,0.00783 µM,0.00184 µM,14.1 µM,0.000404 µM,> 100,0.0011 µM,0.00655 µM,0.001 µM,,1.26 µM,9.69 µM,0.000609 µM,> 100 µM,7.57 µM,> 100 µM
CN(CCC(=O)O)S(=O)(=O)c1ccccc1,,> 100 µM,,> 100 µM,,> 100 µM,,> 100 µM,,> 100,,> 100 µM,,> 100 µM,,> 100 µM,,> 100 µM,,> 100 µM
CN(C)CC1CCn2c(c(C3=C(c4cn(C)c5ccccc45)C(=O)NC3=O)c3ccccc32)C1 (configuration not stated),4.62 µM,9.87 µM,5.17 µM,16.6 µM,4.07 µM,7.95 µM,5.22 µM,10.1 µM,6.41 µM,24.2,3.87 µM,7.49 µM,3.3 µM,6.71 µM,1.78 µM,6.55 µM,4.1 µM,10.1 µM,3.59 µM,7.31 µM
COc1ccc(F)cc1C(=O)c1cnc(NC2CCN(S(C)(=O)=O)CC2)nc1N,3.95 µM,> 21.6 µM,6.26 µM,> 25 µM,4.3 µM,14.7 µM,1.84 µM,> 13.6 µM,2.63 µM,> 21.3,3.29 µM,7.77 µM,2.75 µM,6.58 µM,1.35 µM,9.59 µM,2.86 µM,> 20.5 µM,3.57 µM,> 16.8 µM
Clc1ccc(CO/N=C(\Cn2ccnc2)c2ccc(Cl)cc2Cl)c(Cl)c1,,,1.27 µM,2.9 µM,1.52 µM,3.28 µM,1.92 µM,3.92 µM,1.87 µM,4.62,1.86 µM,3.34 µM,1.61 µM,3.05 µM,1.15 µM,2.53 µM,1.57 µM,3.21 µM,1.66 µM,3.36 µM
ON(CCc1ccccn1)Cc1ccccc1,,> 100 µM,,> 100 µM,,> 100 µM,,> 100 µM,,,,> 100 µM,,> 100 µM,,> 100 µM,,> 100 µM,,> 100 µM
